# US20070196277A1, “Compositions and Methods for the Direct Therapy of Tumors” (priority 2006, published 2007)
# Like-named read-outs stand apart in the source and are kept apart here.
# Experiments:
# [1] = system: intracerebral T9 gliosarcoma tumors; conditions: same dose delivered systemically; cited from earlier work
# [2] = system: Walker Carcinosarcoma 256 tumors; conditions: cited from earlier work
# [3] = cited from earlier work
# [4] = cited from earlier work; remark: listed apart in the source
# [5] = cited from earlier work; remark: listed apart in the source
# [6] = molecular target: T1, dihydrouracil dehydrogenase (Homo sapiens, UniProt Q12882); conditions: cited from earlier work
# T1 sequence (Q12882 4-1025): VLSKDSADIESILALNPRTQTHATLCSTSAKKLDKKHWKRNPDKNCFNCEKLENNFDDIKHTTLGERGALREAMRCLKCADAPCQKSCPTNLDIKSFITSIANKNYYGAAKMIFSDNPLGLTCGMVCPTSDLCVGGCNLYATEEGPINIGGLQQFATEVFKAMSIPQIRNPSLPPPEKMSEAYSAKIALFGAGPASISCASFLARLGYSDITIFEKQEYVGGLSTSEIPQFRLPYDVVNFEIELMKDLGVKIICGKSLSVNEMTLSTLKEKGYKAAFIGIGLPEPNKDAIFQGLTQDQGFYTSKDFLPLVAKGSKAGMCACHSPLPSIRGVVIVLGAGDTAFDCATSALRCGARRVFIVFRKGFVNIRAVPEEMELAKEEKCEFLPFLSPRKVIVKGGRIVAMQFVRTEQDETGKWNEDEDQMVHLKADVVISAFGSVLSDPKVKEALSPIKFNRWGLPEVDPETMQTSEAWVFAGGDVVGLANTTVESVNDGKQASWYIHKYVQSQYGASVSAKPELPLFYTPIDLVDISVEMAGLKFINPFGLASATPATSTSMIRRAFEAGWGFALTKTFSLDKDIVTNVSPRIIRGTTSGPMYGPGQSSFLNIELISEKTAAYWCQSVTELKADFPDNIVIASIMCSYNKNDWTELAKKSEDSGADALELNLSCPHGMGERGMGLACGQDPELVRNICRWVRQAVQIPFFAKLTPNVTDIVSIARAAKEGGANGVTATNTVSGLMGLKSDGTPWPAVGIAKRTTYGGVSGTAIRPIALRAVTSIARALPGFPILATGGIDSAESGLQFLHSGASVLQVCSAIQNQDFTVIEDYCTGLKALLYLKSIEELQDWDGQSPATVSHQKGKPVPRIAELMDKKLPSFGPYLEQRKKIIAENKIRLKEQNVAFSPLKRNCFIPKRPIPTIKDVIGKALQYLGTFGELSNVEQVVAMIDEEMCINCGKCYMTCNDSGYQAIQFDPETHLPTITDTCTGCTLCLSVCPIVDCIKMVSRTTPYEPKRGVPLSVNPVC
# [7] = powder, light-protected container, room temperature; cited from earlier work
# [8] = system: marrow cells; conditions: in vitro human bone marrow assay; cited from earlier work
# [9] = system: rat brain
# Text: This conversion is based upon comparison of the mass of the rat brain (approximately 2.5 gms) and human brain (approximately 1350 gms).
# [10] = system: cat brain
# Text: This conversion is based upon comparison of the cat brain (approximately 20 gms) and human brain (approximately 1350 gms).
# [11] = cited from earlier work; remark: listed apart in the source
smiles,measurement,setting,value
"O=NN(CCCl)C(=O)NCCCl [BCNU, 1,3-bis(2-chloroethyl)-1-nitrosourea]",cures,[1],no cures
same,increase in life span,[1],no increase in life span
same,antitumor efficacy,"[2]; aqueous vehicle, injected intratumorally","had antitumor efficacy, but far less than the same BCNU dose formulated in ethanol"
same,therapeutic benefit,"[2]; systemic administration, same dose (25 mg/kg)",no therapeutic benefit
same,half life in serum,[3],about 15 minutes
same,blood-brain barrier passage,[4]; in vivo,crosses the blood-brain barrier quite effectively
same,total dose excreted as respiratory CO2,[4]; in vivo,about 10%
same,intact BCNU in serum,"[4]; intravenous, after 60 minutes",little intact BCNU
"Oc1ncc(I)c(O)n1 [IUra, 2,4-dihydroxy-5-iodopyrimidine]",apparent Michaelis constant of disappearance from plasma,"[5]; after the infusion, nonlinear",30 mumol/L
same,maximum plasma IUra concentration,[5]; following infusion of 500 to 1200 mg/m^2 of IdUrd,100 mumol/L
same,plasma IUra relative to simultaneous IdUrd plasma concentration,[5]; following infusion of IdUrd,about 10 times
same,inhibition of dihydrouracil dehydrogenase,[6],competitive inhibitor
same,storage stability,[7],1 year
"O=c1[nH]c(=O)n([C@H]2C[C@H](O)[C@@H](CO)O2)cc1I [IdUrd, 5-iodo-2′-deoxyuridine]",cytotoxicity to marrow cells relative to IUra,[8],at least 100 times
CCO [ethanol],maximally tolerated volume extrapolated to normal human brain,"[9]; from rat, by brain mass 2.5 gms vs 1350 gms",10.8 mL
same,maximally tolerated volume with no apparent neurologic deficit,[9]; rat brain,20 μl
same,maximally tolerated volume with no apparent neurologic deficit,"[10]; cat brain, unpublished data",0.4 ml
same,maximally tolerated volume extrapolated to normal human brain,"[10]; from cat, by brain mass 20 gms vs 1350 gms",27 mL
"CC(C)NC(C)Cc1ccc(I)cc1 (stereo not drawn) [iofetamine, N-isopropyl-p-iodoamphetamine]","plasma elimination half-time, first phase",[11]; biphasic elimination,1.6 ± 1.2 h
same,"plasma elimination half-time, second phase",[11]; biphasic elimination,10.9 ± 6.1 h
same,blood-brain barrier passage,[11]; in vivo,crosses the intact blood-brain barrier
